Where two headings read alike, the source gives them in different places.
Legend:
[1] = Phase behaviour of FS with HM-EHEC; format: physicochemical; settings: 1 wt % HM-EHEC, 10 mM Li2SO4, pH 5
Excerpt: The top layer had low viscosity (similar to that of water) and was mildly cloudy; the bottom layer was yellow and highly viscous, almost gel-like. As the concentration of reduced FS increased, the top layer became more cloudy and the bottom layer became less viscous (up to 5 mmolal). As the concentration of reduced FS was decreased (down to 0.1 mmolal), the top layer cleared and the bottom layer became less viscous. […] The solutions made with oxidized FS were faintly blue and cloudy as the concentration increased (from 0.1 to 0.5 mmolal).

COS-7 cells [2] = system: COS-7 cells
Experimental: Preparation of lipoplexes for Transfection Assays.
Cells were then incubated for 48 hours and cell morphology and relative levels of EGFP expression were characterized using phase contrast and fluorescence microscopy.
For these experiments, cells were incubated with lipoplexes for four hours in serum-free medium, followed by incubation in fresh serum-containing medium (see Materials and Methods Section for complete description of transfection procedures).

COS-7 cells [3] = settings: for concentrations at which maximum gene expression is observed: medium with 10% fetal bovine serum
[4] = format: physicochemical; settings: for cloud point: 0.1 wt % EHEC, 0.1M Li2SO4
Experimental: Surfactant-ethyl(hydroxylethyl) cellulose (EHEC) interactions were characterized by observing the clouding temperature of solutions of EHEC containing various concentrations of surfactant.
Sample Preparation. Three samples of each solution were prepared to assess reproducibility. […] The EHEC solution was filtered through 0.22 μm GV Millipore filter, placed under vacuum for 30-45 minutes, then bubbled with argon for another 30-45 minutes. This deaeration procedure was performed for all solutions, including solutions of DTAB.
The solutions of polymer, salt, and surfactant were then mixed to form 0.1 wt % EHEC, 0.1M Li2SO4, and the desired concentration of surfactant. These solutions were deaerated three times and bubbled with argon inside airtight containers. These solutions were stored at 25° C. and measured after 3 hours and 1 day.
They were simply filtered, mixed to the desired concentrations, and stored for one day before measurements of cloud points and light scattering were performed.
Cloud Point Measurements. Solution of EHEC and surfactant were immersed in a temperature bath controlled to within 0.1° C. The temperature was increased by 1° C. every 10 minutes and the solutions were visually inspected for clouding. […] The values reported in this study are based on clouding points measured upon increasing the temperature of the solutions.

[5] = Critical micelle concentration (CMC) in 0.1M Li2SO4; format: physicochemical
[6] = Dynamic light scattering of surfactant micelles (no polymer); format: physicochemical; settings: 0.1M Li2SO4, no polymer, […]° C., center-of-mass diffusion of spheres (200 mmolal DTAB; 25 mmolal reduced FTMA)
[7] = QLS hydrodynamic size of BFDMA solutions without DNA; format: physicochemical; settings: 10 μM BFDMA, Opti-MEM, 25° C.
Experimental: (§1) 1) A solution of 100 μM reduced BFDMA was prepared by dissolving BFDMA (solid) in water.
(§2) 2) A solution of 100 μM oxidized BFDMA was prepared as follows: First, a […] reduced BFDMA solution was prepared by dissolving BFDMA (solid) in 1 mM Li2SO4 aqueous solution, and then the solution was oxidized electrochemically. The resultant oxidized BFDMA solution was diluted with water to give a solution of 100 μM oxidized BFDMA.
150 μl of 100 μM reduced/oxidized BFDMA solution was diluted with 150 μl of water, followed by the addition of 1.2 ml of Opti-MEM. The final BFDMA concentration was 10 μM. QLS measurements were made at 25° C. immediately after the samples were prepared.

pGFP = assay: QLS hydrodynamic size of BFDMA/DNA complexes; format: physicochemical; settings: 10 μM BFDMA, 2.4 μg/ml DNA, Opti-MEM, 25° C.
Experimental: as §1, §2
1) 150 μl of 100 μM reduced/oxidized BFDMA solution was diluted with 150 μl of 24 μg/ml pGFP aqueous solution, and the solution was allowed to stand for 20 min at room temperature. 1.2 ml of Opti-MEM was added to the solution to yield a final BFDMA concentration of 10 μM and a final DNA concentration of 2.4 μg/ml. QLS measurements were made at 25° C. immediately after the samples were prepared.

COS-7 cells [8] = assay: Live/dead cytotoxicity assay of lipoplexes
pEGFP-N1 = settings: serum-free cell culture medium;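 further: dynamic light scattering of lipoplexes formed from BFDMA and pEGFP-N1 plasmid (2.4 µg/ml), scattering angles 30° to 110°, autocorrelation functions analysed with CONTIN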
[9] = [BFDMA] 6 μM, listed as Ox. BFDMA
[10] = [BFDMA] 8 μM, listed as Ox. BFDMA
[11] = [BFDMA] 10 μM, listed as Ox. BFDMA
[12] = [BFDMA] 20 μM, listed as Ox. BFDMA
[13] = [BFDMA] 60 μM, listed as Ox. BFDMA
[14] = [BFDMA] 6 μM, listed as Red. BFDMA
[15] = [BFDMA] 8 μM, listed as Red. BFDMA
[16] = [BFDMA] 10 μM, listed as Red. BFDMA
[17] = [BFDMA] 20 μM, listed as Red. BFDMA
[18] = [BFDMA] 60 μM, listed as Red. BFDMA

11-ferrocenylundecylsulfonate [oxidized FS]
liquid-liquid phase separation [1]: did not form two coexisting liquid phases

11-ferrocenylundecylsulfonate [reduced FS]
liquid-liquid phase separation [1]: caused a liquid-liquid phase separation

C[N+](C)(CCCCCCCCCCC[c-]1cccc1)CCCCCCCCCCC[c-]1cccc1.[Br-].[Fe+2].[Fe+2].c1cc[cH-]c1.c1cc[cH-]c1 [BFDMA, bis(11-ferrocenylundecyl)dimethylammonium bromide]
transfection activity following electrochemical cycling (EGFP expression) (COS-7 cells [2]; oxidized at 500 mV, then reduced at −44 mV prior to contact with DNA): retains transfection activity | magnitude of gene expression in presence of serum relative to serum-free medium (COS-7 cells [3]; four hours exposure, 10% fetal bovine serum): approximately one order of magnitude lower

CCCCCCCCCCCC[N+](C)(C)C.[Br-] [DTAB, dodecyltrimethyl ammonium bromide]
clouding temperature compared to solutions free of DTAB ([4]; 1 mM DTAB): not measurably lowered | lowering of clouding temperature of EHEC solutions ([4]; 5 mmolal DTAB (from 32° C. to 26° C.)): 6 °C | cloud point ([4]; 5 mmolal DTAB): 26-27 °C | cloud point ([4]; DTAB concentrations near its CMC (10 mM)): 14±0.3 °C | CMC [5]: 10 mM | hydrodynamic diameter of micelles [6]: 4 nm

O=S(=O)([O-])[O-].[Li+].[Li+] [Li2SO4]
clouding temperature ([4]; 0.1% (w/w) EHEC, 1M Li2SO4, pH 2.5): less than 6 °C

C[N+](C)(CCCCCCCCCCC[c-]1cccc1)CCCCCCCCCCC[c-]1cccc1.[Br-].[Fe+2].[Fe+2].c1cc[cH-]c1.c1cc[cH-]c1 [oxidized BFDMA, bis(11-ferrocenylundecyl)dimethylammonium bromide]
EGFP expression (cell transfection) (COS-7 cells [2]; 20 μM lipid, 4 h exposure in serum-free medium, 48 h): relatively high levels | EGFP gene expression, generally (COS-7 cells [2]; 2-40 μM lipid, 4 h exposure in serum-free medium, 48 h): very low levels | hydrodynamic size of aggregates w/o DNA ([7]; time 0 min, listed as ox): 363.4 nm | hydrodynamic size of aggregates w/o DNA ([7]; time 120 min, listed as ox): 496 nm | hydrodynamic size of aggregates w/o DNA ([7]; time 240 min, listed as ox): 511 nm | levels of gene expression versus reduced BFDMA (COS-7 cells [3]; 2 hours exposure, serum-free): dramatically lower | luciferase expression (COS-7 cells [3]; 12 hour exposure, serum-free, 20 μM): in excess of expression mediated by reduced BFDMA | concentrations at which maximum gene expression is observed (COS-7 cells [3]; four hours exposure): 40 µM and 60 µM | hydrodynamic size of aggregates w/ DNA (pGFP; time 0 min, listed as ox): 209.6 nm | hydrodynamic size of aggregates w/ DNA (pGFP; time 120 min, listed as ox): 221.4 nm | hydrodynamic size of aggregates w/ DNA (pGFP; time 240 min, listed as ox): 297.2 nm | cytotoxicity relative to DNA alone or commercial controls (COS-7 cells [8]; 2 hours exposure, any concentration evaluated (2 μM to 60 μM), OptiMEM): not cytotoxic | toxicity (COS-7 cells [8]; 4 hours exposure, e.g. 40 μM and 60 μM): increases at higher concentrations | Number-Avg Diameter (pEGFP-N1; [BFDMA] 2 μM, 600 ng DNA, listed as Ox. BFDMA): 89 (±40) nm | Intensity-Avg Diameter (pEGFP-N1; [BFDMA] 2 μM, listed as Ox. BFDMA): 196 (±86) nm | Intensity-Avg Diameter (pEGFP-N1; [9]): 217 (±58) nm | Number-Avg Diameter (pEGFP-N1; [9]): 64 (±25) nm | Intensity-Avg Diameter (pEGFP-N1; [10]): 228 (±100) nm | Number-Avg Diameter (pEGFP-N1; [10]): 86 (±37) nm | Intensity-Avg Diameter (pEGFP-N1; [11]): 266 (±212) nm | Number-Avg Diameter (pEGFP-N1; [11]): 110 (±55) nm | Number-Avg Diameter (pEGFP-N1; [BFDMA] 20 μM): ca. 610 nm | Intensity-Avg Diameter (pEGFP-N1; [12]): 1163 (±150) nm | Number-Avg Diameter (pEGFP-N1; [12]): 611 (±183) nm | Intensity-Avg Diameter (pEGFP-N1; [13]): 1497 (±340) nm | Number-Avg Diameter (pEGFP-N1; [13]): 1254 (±512) nm

C[N+](C)(CCCCCCCCCCC[c-]1cccc1)CCCCCCCCCCC[c-]1cccc1.[Br-].[Fe+2].[Fe+2].c1cc[cH-]c1.c1cc[cH-]c1 [reduced BFDMA, bis(11-ferrocenylundecyl)dimethylammonium bromide]
EGFP expression (COS-7 cells [2]; 2 μM lipid, 4 h exposure in serum-free medium, 48 h): relatively low levels | EGFP expression (transfection) (COS-7 cells [2]; 10 μM and 20 μM lipid, 4 h exposure in serum-free medium, 48 h): increased significantly | EGFP expression (transfection) (COS-7 cells [2]; 40 μM lipid, 4 h exposure in serum-free medium, 48 h): significantly reduced | cell death by phase contrast microscopy (COS-7 cells [2]; concentrations above 40 μM): Significant cell death | hydrodynamic size of aggregates w/o DNA ([7]; time 0 min, listed as red): 472.8 nm | hydrodynamic size of aggregates w/o DNA ([7]; time 120 min, listed as red): 1214 nm | hydrodynamic size of aggregates w/o DNA ([7]; time 240 min, listed as red): 1090.3 nm | luciferase expression (normalized to total cell protein) (COS-7 cells [3]; 2 hours exposure, serum-free, 2 μM and 40 μM and 60 μM): low | luciferase expression (normalized to total cell protein) (COS-7 cells [3]; 2 hours exposure, serum-free, 4 μM to 20 μM): significantly higher | luciferase expression versus Lipofectamine 2000 and TransIT-LT1 (COS-7 cells [3]; four and twelve hours exposure, serum-free, 6 μM to 20 μM): comparable to or measured to be in excess of | concentrations at which maximum gene expression is observed (COS-7 cells [3]; four hours exposure): 20 µM and 40 µM | hydrodynamic size of aggregates w/ DNA (pGFP; time 0 min, listed as red): 689.7 nm | hydrodynamic size of aggregates w/ DNA (pGFP; time 120 min, listed as red): 2613.9 nm | hydrodynamic size of aggregates w/ DNA (pGFP; time 240 min, listed as red): 2995.5 nm | cytotoxicity (COS-7 cells [8]; 2 hours exposure, 2 μM to 10 μM): not cytotoxic | cytotoxicity (COS-7 cells [8]; 2 hours exposure, 20 μM): increases slightly | cytotoxicity (COS-7 cells [8]; 2 hours exposure, 40 μM and 60 μM): substantially cytotoxic | cytotoxicity (COS-7 cells [8]; 12 hours exposure, 6 μM to 10 μM, versus two or four hours): more cytotoxic | cytotoxicity (COS-7 cells [8]; 12 hours exposure, 20 μM): cytotoxic | cytotoxicity (COS-7 cells [8]; two or four hours exposure, 20 μM): not substantially cytotoxic | Number-Avg Diameter (pEGFP-N1; [BFDMA] 2 μM, 600 ng DNA, listed as Red. BFDMA): 158 (±64) nm | Intensity-Avg Diameter (pEGFP-N1; [BFDMA] 2 μM, listed as Red. BFDMA): 369 (±74) nm | Intensity-Avg Diameter (pEGFP-N1; [14]): 603 (±262) nm | Number-Avg Diameter (pEGFP-N1; [14]): 231 (±88) nm | Intensity-Avg Diameter (pEGFP-N1; [15]): 951 (±504) nm | Number-Avg Diameter (pEGFP-N1; [15]): 297 (±126) nm | Intensity-Avg Diameter (pEGFP-N1; [16]): 1118 (±426) nm | Number-Avg Diameter (pEGFP-N1; [16]): 219 (±126) nm | Intensity-Avg Diameter (pEGFP-N1; [17]): 2766 (±725) nm | Number-Avg Diameter (pEGFP-N1; [17]): 1490 (±750) nm | Intensity-Avg Diameter (pEGFP-N1; [18]): 4777 (±1350) nm | Number-Avg Diameter (pEGFP-N1; [18]): 1921 (±1220) nm
